Measured values: article PMC11290450, “Isocyanides inhibit bacterial pathogens by covalent targeting of essential metabolic enzymes” (Chemical Science, 2024)
Values after ≈ are worked out from the molar mass of the structure shown.

Columns and labels:
[1] = biological target: T1, glutamine–fructose-6-phosphate aminotransferase (GlmS) (Staphylococcus aureus, UniProt Q2FWA0); test: GDH-coupled glutaminase assay (turnover reduced to about […] at […]); type: biochemical; details: read-out: % residual turnover at 100 μM
T1 construct: recombinant wild-type GlmS

cytochrome P450 2C9 [2] = biological target: T2, cytochrome P450 2C9 (Homo sapiens, UniProt P11712); test: CYP inhibition assay (Table S3); type: biochemical
T2 construct: gene CYP2C9

cytochrome P450 3A4 [3] = biological target: T3, cytochrome P450 3A4 (Homo sapiens, UniProt P08684); test: CYP inhibition assay (Table S3); type: biochemical
T3 construct: gene CYP3A4

cytochrome P450 1A2 [4] = biological target: T4, cytochrome P450 1A2 (Homo sapiens, UniProt P05177); test: CYP inhibition assay (Table S3); type: biochemical
T4 construct: gene CYP1A2

[5] = biological target: T1, glutamine–fructose-6-phosphate aminotransferase (GlmS); test: GDH-coupled glutaminase assay; intact protein MS (+[…] Da, truncated adduct); competitive gel-based IA-alkyne labeling; isoDTB-ABPP; type: biochemical
cytochrome P450 2D6 [6] = biological target: T5, cytochrome P450 2D6 (Homo sapiens, UniProt P10635); test: CYP inhibition assay (Table S3); type: biochemical
T5 construct: gene CYP2D6

E. coli K12 [7] = tested on: T6, E. coli K12; test: microbe, parasite or virus in culture; parameters: broth microdilution MIC, visible growth (turbidity or pellet); details: Escherichia coli, K12, 20 h
T6 construct: K12
Procedure: (§1) faecalis, E. faecium. S. epidermidis, S. pyogenes and S. pneumonia strains were cultivated in brain heart infusion medium (BHB, 7.5 g/L brain infusion, 10 g/L heart infusion, 10 g/L casein peptone, 5 g/L NaCl, 2.5 g/L Na2HPO4, 2 g/L glucose). Cell culture Cell culture media and supplements were purchased from Merck. HeLa cells were cultured in Dulbecco’s Modified Eagle Medium (DMEM, high glucose, 4.5 g/L) supplemented with 10% fetal bovine serum (FBS) and 2 mM L-glutamine at 37 °C in a 5% CO2 atmosphere. Accutase (Merck) was used for cell detachment. Minimum inhibitory concentration (MIC) The minimum inhibitory concentration (MIC) was determined by using the broth microdilution assay. 1 µL of compound stock solution in DMSO was pipetted to the wells of row 1 of a sterile flat bottom 96-well plate containing 100 µL growth medium and thoroughly mixed. Subsequently, a 1:1 serial dilution was performed in the growth medium from row 1 to row 10. […] Plates were incubated for 20 h (37 °C, 200 rpm; for Streptococcus pneumoniae DSM30104 and Streptococcus pyogenes ATCC700294: 5% CO2 atmosphere, 37 °C without shaking), and the dilution series were analyzed for microbial growth, indicated by turbidity and/or a pellet. […] MIC values were determined in technical triplicates and confirmed in two or three independent biological experiments. […]

S. aureus USA300 Lac = tested on: T7, S. aureus USA300 Lac; test: microbe, parasite or virus in culture; parameters: broth microdilution MIC, visible growth (turbidity or pellet); details: Staphylococcus aureus, USA300, 20 h
T7 construct: USA300 LAC
Procedure: as §1

A. baumannii 5075 = tested on: T8, A. baumannii 5075; test: microbe, parasite or virus in culture; parameters: broth microdilution MIC, visible growth (turbidity or pellet); details: Acinetobacter baumannii, 5075, 20 h
T8 construct: AB5075
Procedure: (§2) faecalis, E. faecium. S. epidermidis, S. pyogenes and S. pneumonia strains were cultivated in brain heart infusion medium (BHB, 7.5 g/L brain infusion, 10 g/L heart infusion, 10 g/L casein peptone, 5 g/L NaCl, 2.5 g/L Na2HPO4, 2 g/L glucose). Cell culture Cell culture media and supplements were purchased from Merck. HeLa cells were cultured in Dulbecco’s Modified Eagle Medium (DMEM, high glucose, 4.5 g/L) supplemented with 10% fetal bovine serum (FBS) and 2 mM L-glutamine at 37 °C in a 5% CO2 atmosphere. Accutase (Merck) was used for cell detachment. Minimum inhibitory concentration (MIC) The minimum inhibitory concentration (MIC) was determined by using the broth microdilution assay. 1 µL of compound stock solution in DMSO was pipetted to the wells of row 1 of a sterile flat bottom 96-well plate containing 100 µL growth medium and thoroughly mixed. Subsequently, a 1:1 serial dilution was performed in the growth medium from row 1 to row 10. 50 µL of bacterial suspension (1:10,000 dilution of an overnight culture in the respective growth medium) was added to each well containing compound and the growth control (row 11). A sterile control containing only medium was included (row 12). The final volume was 100 µL per well. Plates were incubated for 20 h (37 °C, 200 rpm; […] ATCC700294: 5% CO2 atmosphere, 37 °C without shaking), and the dilution series were analyzed for microbial growth, indicated by turbidity and/or a pellet. The lowest concentration in the dilution series at which no growth of bacteria could be observed was defined as the MIC of the compound. MIC values were determined in technical triplicates and confirmed in two or three independent biological experiments. The [compound left out] library was screened once in technical triplicates. The MIC is reported as mean of technical triplicates. If the MIC varied between biological replicates, concentration ranges are indicated.

A. baumannii ATCC 19606 = tested on: T9, A. baumannii ATCC 19606; test: microbe, parasite or virus in culture; parameters: broth microdilution MIC, visible growth (turbidity or pellet); details: Acinetobacter baumannii, ATCC19606, 20 h
T9 construct: ATCC 19606
Procedure: as §2

B. subtilis 168 = tested on: T10, B. subtilis 168; test: microbe, parasite or virus in culture; parameters: broth microdilution MIC, visible growth (turbidity or pellet); details: Bacillus subtilis, 168, 20 h
T10 construct: 168
Procedure: as §2

E. coli K12 [8] = tested on: T6, E. coli K12; test: microbe, parasite or virus in culture; parameters: broth microdilution MIC, visible growth (turbidity or pellet); details: Escherichia coli, K12, 20 h; remark: listed apart in the source
Procedure: as §2

E. coli UTI89 = tested on: T11, E. coli UTI89; test: microbe, parasite or virus in culture; parameters: broth microdilution MIC, visible growth (turbidity or pellet); details: Escherichia coli, UTI89, 20 h
T11 construct: UTI89
Procedure: as §2

E. faecalis V583 = tested on: T12, E. faecalis V583; test: microbe, parasite or virus in culture; parameters: broth microdilution MIC, visible growth (turbidity or pellet); details: Enterococcus faecalis, V583, 20 h
T12 construct: V583
Procedure: as §2

E. faecium DSM17050 = tested on: T13, E. faecium DSM17050; test: microbe, parasite or virus in culture; parameters: broth microdilution MIC, visible growth (turbidity or pellet); details: Enterococcus faecium, DSM17050, 20 h
T13 construct: DSM 17050
Procedure: as §2

K. pneumoniae DSM 30104 = tested on: T14, K. pneumoniae DSM 30104; test: microbe, parasite or virus in culture; parameters: broth microdilution MIC, visible growth (turbidity or pellet); details: Klebsiella pneumoniae, DSM30104, 20 h
T14 construct: DSM 30104
Procedure: as §2

L. monocytogenes EGD-e = tested on: T15, L. monocytogenes EGD-e; test: microbe, parasite or virus in culture; parameters: broth microdilution MIC, visible growth (turbidity or pellet); details: Listeria monocytogenes, 20 h
T15 construct: EGD-e
Procedure: as §2

P. aeruginosa PAO1 = tested on: T16, P. aeruginosa PAO1; test: microbe, parasite or virus in culture; parameters: broth microdilution MIC, visible growth (turbidity or pellet); details: Pseudomonas aeruginosa, PAO1, 20 h
T16 construct: PAO1
Procedure: as §2

S. aureus NCTC 8325 = tested on: T17, S. aureus NCTC 8325; test: microbe, parasite or virus in culture; parameters: broth microdilution MIC, visible growth (turbidity or pellet); details: Staphylococcus aureus, NCTC8325, 20 h
T17 construct: NCTC 8325
Procedure: as §2

S. aureus USA300 LAC J2 = tested on: T18, S. aureus USA300 LAC J2; test: microbe, parasite or virus in culture; parameters: broth microdilution MIC, visible growth (turbidity or pellet); details: Staphylococcus aureus, USA300, 20 h
T18 construct: USA300 LAC JE2
Procedure: as §2

S. epidermidis RP62 A = tested on: T19, S. epidermidis RP62 A; test: microbe, parasite or virus in culture; parameters: broth microdilution MIC, visible growth (turbidity or pellet); details: Staphylococcus epidermidis, RP62A, 20 h
T19 construct: RP62A
Procedure: as §2

S. pneumoniae DSM 20567 = tested on: T20, S. pneumoniae DSM 20567; test: microbe, parasite or virus in culture; parameters: broth microdilution MIC, visible growth (turbidity or pellet); details: Streptococcus pneumoniae, DSM20567, 20 h
T20 construct: DSM 20567
Procedure: as §2

S. pyogenes ATCC 700294 = tested on: T21, S. pyogenes ATCC 700294; test: microbe, parasite or virus in culture; parameters: broth microdilution MIC, visible growth (turbidity or pellet); details: Streptococcus pyogenes, ATCC700294, 20 h
T21 construct: ATCC 700294
Procedure: as §2

S. typhimurium LT2 = tested on: T22, S. typhimurium LT2; test: microbe, parasite or virus in culture; parameters: broth microdilution MIC, visible growth (turbidity or pellet); details: Salmonella enterica, TYPHIMURIUM, 20 h
T22 construct: LT2
Procedure: as §2

cytochrome P450 1A2 [9] = biological target: T4, cytochrome P450 1A2; test: biochemical; parameters: CYP inhibition in human liver microsomes, conversion of isoform-specific substrates; details: substrate phenacetin; liver microsomes
Procedure: (§3) To cover a broad range of structurally diverse compounds, we gathered commercially available primary, secondary, tertiary, vinyl and aromatic [compound left out] for antibacterial testing (Table S1 ^†). […] The minimum inhibitory concentration (MIC) of forty-two compounds was determined in Gram-positive Staphylococcus aureus and Gram-negative Escherichia coli cells up to 50 μM. […] The compound was tested against a panel of Gram-positive and Gram-negative pathogens. Although no antibiotic effects against Gram-negative strains were observed, Bacillus subtilis, Listeria monocytogenes, Staphylococcus epidermidis, and Streptococcus pneumoniae could be inhibited at low micromolar concentrations of I16 (Table S2 ^†). […] This was further corroborated by evaluation I16 in four different human cytochrome P450 enzymes (CYPs).

cytochrome P450 2C9 [10] = biological target: T2, cytochrome P450 2C9; test: biochemical; parameters: CYP inhibition in human liver microsomes, conversion of isoform-specific substrates; details: substrate diclofenac; liver microsomes
Procedure: as §3

cytochrome P450 2D6 [11] = biological target: T5, cytochrome P450 2D6; test: biochemical; parameters: CYP inhibition in human liver microsomes, conversion of isoform-specific substrates; details: substrate dextromethorphan; liver microsomes
Procedure: as §3

cytochrome P450 3A4 [12] = biological target: T3, cytochrome P450 3A4; test: biochemical; parameters: CYP inhibition in human liver microsomes, conversion of isoform-specific substrates; details: substrate midazolam; liver microsomes
Procedure: as §3

T5 sequence (P10635 whole entry): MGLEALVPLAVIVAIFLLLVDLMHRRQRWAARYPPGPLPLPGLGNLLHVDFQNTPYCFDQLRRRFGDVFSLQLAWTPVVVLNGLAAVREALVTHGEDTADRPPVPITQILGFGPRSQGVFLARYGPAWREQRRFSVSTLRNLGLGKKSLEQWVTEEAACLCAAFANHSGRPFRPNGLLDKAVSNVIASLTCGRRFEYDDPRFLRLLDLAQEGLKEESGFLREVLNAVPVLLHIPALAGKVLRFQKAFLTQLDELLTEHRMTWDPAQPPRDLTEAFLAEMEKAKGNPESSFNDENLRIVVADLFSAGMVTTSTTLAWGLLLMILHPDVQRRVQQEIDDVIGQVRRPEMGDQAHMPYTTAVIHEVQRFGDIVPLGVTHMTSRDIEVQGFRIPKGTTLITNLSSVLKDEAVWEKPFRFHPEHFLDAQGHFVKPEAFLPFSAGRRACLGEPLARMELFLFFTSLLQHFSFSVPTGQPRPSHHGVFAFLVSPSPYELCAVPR
T2 sequence (P11712 whole entry): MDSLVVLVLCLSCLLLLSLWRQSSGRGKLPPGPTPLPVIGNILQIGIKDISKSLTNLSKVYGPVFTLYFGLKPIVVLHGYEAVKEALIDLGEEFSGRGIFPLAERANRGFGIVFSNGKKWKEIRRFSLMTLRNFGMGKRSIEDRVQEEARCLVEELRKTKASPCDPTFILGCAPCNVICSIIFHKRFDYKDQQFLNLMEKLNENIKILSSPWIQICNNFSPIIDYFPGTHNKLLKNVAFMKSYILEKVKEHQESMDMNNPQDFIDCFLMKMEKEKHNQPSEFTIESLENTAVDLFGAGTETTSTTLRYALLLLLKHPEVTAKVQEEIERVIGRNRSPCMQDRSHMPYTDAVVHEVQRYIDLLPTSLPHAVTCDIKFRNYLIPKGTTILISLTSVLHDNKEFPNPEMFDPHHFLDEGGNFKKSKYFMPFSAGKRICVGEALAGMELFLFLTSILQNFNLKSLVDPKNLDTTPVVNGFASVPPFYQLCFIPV
T4 sequence (P05177 2-516): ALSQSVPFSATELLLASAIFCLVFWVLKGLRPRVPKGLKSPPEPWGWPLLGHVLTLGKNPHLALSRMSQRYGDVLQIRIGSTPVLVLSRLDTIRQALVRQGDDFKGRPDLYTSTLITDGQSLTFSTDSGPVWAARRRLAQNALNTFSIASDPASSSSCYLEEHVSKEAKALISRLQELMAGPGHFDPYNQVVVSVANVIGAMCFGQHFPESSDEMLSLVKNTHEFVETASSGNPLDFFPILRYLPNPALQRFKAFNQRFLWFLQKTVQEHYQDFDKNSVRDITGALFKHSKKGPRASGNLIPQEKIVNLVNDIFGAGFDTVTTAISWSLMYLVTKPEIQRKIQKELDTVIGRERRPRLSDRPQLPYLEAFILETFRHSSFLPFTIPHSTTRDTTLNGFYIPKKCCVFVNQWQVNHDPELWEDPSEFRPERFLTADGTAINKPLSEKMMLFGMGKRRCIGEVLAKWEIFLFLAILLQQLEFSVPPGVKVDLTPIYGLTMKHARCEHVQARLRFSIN
T3 sequence (P08684 2-503): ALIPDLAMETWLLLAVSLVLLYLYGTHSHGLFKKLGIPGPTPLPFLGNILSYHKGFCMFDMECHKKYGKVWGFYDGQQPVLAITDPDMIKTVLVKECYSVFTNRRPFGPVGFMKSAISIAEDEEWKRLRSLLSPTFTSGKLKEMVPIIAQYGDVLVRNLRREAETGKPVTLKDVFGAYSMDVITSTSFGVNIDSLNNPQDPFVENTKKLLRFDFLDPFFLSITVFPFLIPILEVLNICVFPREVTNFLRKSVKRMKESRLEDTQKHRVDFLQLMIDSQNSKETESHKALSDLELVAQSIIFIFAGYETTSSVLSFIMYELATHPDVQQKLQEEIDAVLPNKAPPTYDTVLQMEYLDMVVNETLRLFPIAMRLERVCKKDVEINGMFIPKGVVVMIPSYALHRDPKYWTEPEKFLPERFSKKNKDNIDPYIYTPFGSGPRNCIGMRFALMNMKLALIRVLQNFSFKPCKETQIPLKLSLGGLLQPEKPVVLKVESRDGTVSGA
T1 sequence (Q2FWA0 entry or part of it): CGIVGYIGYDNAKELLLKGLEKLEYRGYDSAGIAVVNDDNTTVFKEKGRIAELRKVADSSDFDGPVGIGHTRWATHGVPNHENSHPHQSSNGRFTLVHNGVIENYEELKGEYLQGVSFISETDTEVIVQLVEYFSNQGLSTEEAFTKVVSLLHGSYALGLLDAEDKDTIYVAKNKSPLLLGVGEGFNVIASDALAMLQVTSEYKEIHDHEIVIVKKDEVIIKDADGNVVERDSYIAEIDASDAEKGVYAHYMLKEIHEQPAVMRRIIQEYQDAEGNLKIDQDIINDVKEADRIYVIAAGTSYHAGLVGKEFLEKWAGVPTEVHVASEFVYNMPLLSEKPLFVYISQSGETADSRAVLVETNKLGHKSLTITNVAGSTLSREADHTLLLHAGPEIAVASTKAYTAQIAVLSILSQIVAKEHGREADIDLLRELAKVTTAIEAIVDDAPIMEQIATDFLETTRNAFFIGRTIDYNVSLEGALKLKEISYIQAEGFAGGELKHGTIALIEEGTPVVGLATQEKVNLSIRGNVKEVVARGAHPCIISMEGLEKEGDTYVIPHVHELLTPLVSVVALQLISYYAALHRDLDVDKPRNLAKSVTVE

NC(=O)CI [IA, iodoacetamide]
remaining activity at 100 µM [1]: ~35%

[C-]#[N+]C(c1ccc(F)cc1Cl)S(=O)(=O)c1ccc(C)cc1 (stereo not shown) [I16]
CYP inhibition assay (Table S3) (cytochrome P450 2C9 [2]): I16 inhibited all tested CYP isoforms (2C9, 2D6, 1A2, and 3A4) at nanomolar concentrations | CYP inhibition assay (Table S3) (cytochrome P450 3A4 [3]): I16 inhibited all tested CYP isoforms (2C9, 2D6, 1A2, and 3A4) at nanomolar concentrations | CYP inhibition assay (Table S3) (cytochrome P450 1A2 [4]): I16 inhibited all tested CYP isoforms (2C9, 2D6, 1A2, and 3A4) at nanomolar concentrations | GDH-coupled glutaminase assay; intact protein MS (+27.5 Da, truncated adduct); c [5]: glutamate release rate decreased concentration-dependently by I16, corroborating its interaction with the active site cysteine | CYP inhibition assay (Table S3) (cytochrome P450 2D6 [6]): I16 inhibited all tested CYP isoforms (2C9, 2D6, 1A2, and 3A4) at nanomolar concentrations | MIC (E. coli K12 [7]): > 50 µM | MIC (S. aureus USA300 Lac): 1.56 µM (≈ 0.505 µg/mL) | MIC (A. baumannii 5075): > 100 µM | MIC (A. baumannii ATCC 19606): > 100 µM | MIC (B. subtilis 168): 12.5 µM (≈ 4.05 µg/mL) | MIC (E. coli K12 [8]): > 100 µM | MIC (E. coli UTI89): > 100 µM | MIC (E. faecalis V583): > 100 µM | MIC (E. faecium DSM17050): > 100 µM | MIC (K. pneumoniae DSM 30104): > 100 µM | MIC (L. monocytogenes EGD-e): 1 µM (≈ 0.324 µg/mL) | MIC (P. aeruginosa PAO1): > 100 µM | MIC (S. aureus NCTC 8325): 0.78 to 1.56 µM (≈ 0.253 to 0.505 µg/mL) | MIC (S. aureus USA300 LAC J2): 1.56 µM (≈ 0.505 µg/mL) | MIC (S. epidermidis RP62 A): 1 µM (≈ 0.324 µg/mL) | MIC (S. pneumoniae DSM 20567): 1.56 µM (≈ 0.505 µg/mL) | MIC (S. pyogenes ATCC 700294): > 100 µM | MIC (S. typhimurium LT2): > 100 µM | IC50 (cytochrome P450 1A2 [9]): 60.8 ± 17 nM | IC50 (cytochrome P450 2C9 [10]): 144 ± 53 nM | IC50 (cytochrome P450 2D6 [11]): 59.3 ± 20 nM | IC50 (cytochrome P450 3A4 [12]): 26.1 ± 8 nM
